Biological target: P. falciparum apicoplast DNA polymerase (Pf-apPOL) (Plasmodium falciparum, UniProt Q8ILY1)
Test: Fluorescence-based high-throughput DNA polymerase assay (molecular beacon), primary screen and dose-response
Format: biochemical
Experimental: The HT assay employs a molecular beacon, a stem-loop DNA template with a Cy3 dye and the Black Hole Quencher on the 3′ and 5′ ends of the DNA, respectively. Pf-apPOL concentration is based on a calculated absorptivity of ε280 = 56750 M^−1 cm^−1. Reactions were carried out at 25 °C, using Corning 3575 […] (well-volume, 20 µL). Assays testing for compound inhibition composed of reaction buffer (pH 7.9 in 50 mM potassium acetate, 20 mM Tris-acetate and 10 mM magnesium acetate), Pf-apPOL (20 nM), DNA substrate (20 nM), dNTPs (6 µM), and compound (10 µM in DMSO). The DNA and nucleotide substrates (dNTPs) were at concentrations of 20 nM and 6 µM, respectively, in the assay. Pf-apPOL was incubated in the reaction buffer with dNTPs and the compound of interest (10 µM, in the assay) at 25 °C for 10 min. The DNA substrate was then added and the reaction was allowed to proceed for 90 min at 25 °C.
Each assay plate contained 16 negative controls (no Pf-apPOL, DMSO present) and 16 positive controls (Pf-apPOL present, no DMSO). The fluorescence of each well was determined using a BioTek Synergy Neo fluorescence plate reader using excitation and emission wavelengths of 555 and 570 nm, respectively.
In the above, Min is the average of fluorescence emission of the negative controls (substrate only), Max the average fluorescence emission from the positive controls (enzyme + substrate), and Test the emission from the assays in the presence of compounds (enzyme + compound + substrates). […] […] The IC50 of each compound was determined using Equation (2): (2) IC50= Vmax/(1+ (I/IC50)^n)
In the above, n measures cooperativity, with n > 1 indicating synergistic binding of more than a single molecule of the compound.
To identify apPOL inhibitors we utilised our previously developed high-throughput DNA polymerase assay. The HT assay is based on a molecular beacon DNA template that forms a stem-loop with a Cy3 dye and the Black Hole Quencher on the 3′ and 5′ ends of the DNA, respectively. DNA polymerase activity extends an annealed primer through the stem region, displacing the fluorophore from the quencher, thereby increasing its fluorescence (Figure 1(A)). The assay accurately recapitulates the kinetic behaviour of apPOL, as measured through more conventional low-throughput gel-based assays. The Z′ factor for the assay described here was 0.9 across all plates (data not shown).
Figure 1. High-throughput screening. (A) The fluorescent-based DNA polymerase assay used to screen the compound libraries. The DNA template strand is a hairpin loop with a primer annealed to the loop. The 3’ end of the primer is 11 bases away from the 6 bp duplex. Strand displacement activity of the DNA polymerase separates the Cy3 dye from the Black hole quencher leading to an increase in fluorescent signal. (B) The high-throughput assay workflow. The DNA polymerase is incubated with […] compound for 10 min prior to addition of the hairpin substrate. The reaction is quenched at 3 different time points and the fluorescent signal is measured and % inhibition is determined using the provided equation.

[1] = primary screen value of the 186 hits; unit not given; 90 min, 10 µM

Chain of P. falciparum apicoplast DNA polymerase (Pf-apPOL) (Q8ILY1 entry or part of it): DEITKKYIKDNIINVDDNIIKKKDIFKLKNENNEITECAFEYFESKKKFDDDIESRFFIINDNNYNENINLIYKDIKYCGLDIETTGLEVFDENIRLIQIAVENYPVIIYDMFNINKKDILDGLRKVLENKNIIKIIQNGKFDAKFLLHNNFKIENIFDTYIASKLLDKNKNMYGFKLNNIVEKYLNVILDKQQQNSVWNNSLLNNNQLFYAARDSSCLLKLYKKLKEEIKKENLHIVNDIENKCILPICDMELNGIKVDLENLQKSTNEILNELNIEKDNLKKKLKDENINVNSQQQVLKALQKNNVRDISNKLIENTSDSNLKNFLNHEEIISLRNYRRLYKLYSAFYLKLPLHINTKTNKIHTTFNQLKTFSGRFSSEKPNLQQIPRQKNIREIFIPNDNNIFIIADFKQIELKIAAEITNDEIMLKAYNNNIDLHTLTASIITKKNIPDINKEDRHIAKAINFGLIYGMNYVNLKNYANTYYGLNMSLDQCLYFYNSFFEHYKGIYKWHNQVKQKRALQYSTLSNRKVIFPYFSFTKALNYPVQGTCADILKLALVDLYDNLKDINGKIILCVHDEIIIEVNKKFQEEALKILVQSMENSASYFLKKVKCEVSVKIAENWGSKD

SMILES: O=C(Nc1c2c(nn1-c1ccc(Oc3ccccc3)cc1)CSC2)c1ccco1 [KU0055927]
- % inhibition Apo pol 10' (DRC-1; 10'; concentration 2.5): 13.8958%
- % inhibition Apo pol 10' (DRC-1; 10'; concentration 5): 29.5283%
- % inhibition Apo pol 10' (DRC-1; 10'; concentration 10): 43.1911%
- % inhibition Apo pol 10' (DRC-1; 10'; concentration 20): 76.7664%
- % inhibition Apo pol 10' (DRC-1; 10'; concentration 40): 85.1313%
- % inhibition Apo pol 10' (DRC-1; 10'; concentration 80): 86.5336%
- % inhibition Apol 90' (DRC-1; 90'; concentration 2.5): 4.683%
- % inhibition Apol 90' (DRC-1; 90'; concentration 5): 16.7633%
- % inhibition Apol 90' (DRC-1; 90'; concentration 10): 30.4357%
- % inhibition Apol 90' (DRC-1; 90'; concentration 20): 68.2983%
- % inhibition Apol 90' (DRC-1; 90'; concentration 40): 80.3407%
- % inhibition Apol 90' (DRC-1; 90'; concentration 80): 86.0743%
- % inhibition apPOL 180' (DRC-1; 180'; concentration 2.5): -2.927%
- % inhibition apPOL 180' (DRC-1; 180'; concentration 5): 5.714%
- % inhibition apPOL 180' (DRC-1; 180'; concentration 10): 15.8435%
- % inhibition apPOL 180' (DRC-1; 180'; concentration 20): 54.9886%
- % inhibition apPOL 180' (DRC-1; 180'; concentration 40): 72.0227%
- % inhibition apPOL 180' (DRC-1; 180'; concentration 80): 82.6026%
- % inhibition Apol 40' (DRC-2, 40', concentration 5 (unit not given)): 12%
- % inhibition Apol 40' (DRC-2, 40', concentration 40 (unit not given)): 69%
- % inhibition apPOL 180' (DRC-2, 180', concentration 40 (unit not given)): 69%
- % inhibition Apo pol 5' (DRC-2; 5'; concentration 2.5): 8.44%
- % inhibition Apo pol 5' (DRC-2; 5'; concentration 5): 12%
- % inhibition Apo pol 5' (DRC-2; 5'; concentration 5 (unit not given)): 12%
- % inhibition Apo pol 5' (DRC-2; 5'; concentration 10): 40%
- % inhibition Apo pol 5' (DRC-2; 5'; concentration 20): 51%
- % inhibition Apo pol 5' (DRC-2; 5'; concentration 40): 54%
- % inhibition Apo pol 5' (DRC-2; 5'; concentration 80): 55%
- % inhibition Apol 40' (DRC-2; 40'; concentration 2.5): 9%
- % inhibition Apol 40' (DRC-2; 40'; concentration 5): 12%
- % inhibition Apol 40' (DRC-2; 40'; concentration 10): 47%
- % inhibition Apol 40' (DRC-2; 40'; concentration 20): 65%
- % inhibition Apol 40' (DRC-2; 40'; concentration 40): 69%
- % inhibition Apol 40' (DRC-2; 40'; concentration 80): 72%
- % inhibition ApPOL 90' (DRC-2; 90'; concentration 2.5): 7%
- % inhibition ApPOL 90' (DRC-2; 90'; concentration 5): 9.5%
- % inhibition ApPOL 90' (DRC-2; 90'; concentration 10): 45%
- % inhibition ApPOL 90' (DRC-2; 90'; concentration 20): 66%
- % inhibition ApPOL 90' (DRC-2; 90'; concentration 40): 71%
- % inhibition ApPOL 90' (DRC-2; 90'; concentration 80): 75%
- % inhibition apPOL 180' (DRC-2; 180'; concentration 2.5): 4%
- % inhibition apPOL 180' (DRC-2; 180'; concentration 5): 3.19%
- % inhibition apPOL 180' (DRC-2; 180'; concentration 10): 35%
- % inhibition apPOL 180' (DRC-2; 180'; concentration 20): 62%
- % inhibition apPOL 180' (DRC-2; 180'; concentration 40): 69%
- % inhibition apPOL 180' (DRC-2; 180'; concentration 80): 77%
- DNA Pol [1]: 57
- DNA Pol (primary screen value, head "DNA Pol", unit not given; 90 min, 10 µM): 57

SMILES: CCOc1ccc2cc(C3=NN(C(=O)CCC(=O)O)C(c4ccc(C)cc4)C3)c(=O)[nH]c2c1 (stereo not drawn) [KU0056200]
- % inhibition Apo pol 10' (DRC-1; concentration 2.5; 10'): 1.583%
- % inhibition Apol 90' (DRC-1; concentration 2.5; 90'): -4.0405%
- % inhibition apPOL 180' (DRC-1; concentration 2.5; 180'): -8.679%
- % inhibition Apo pol 10' (DRC-1; concentration 5; 10'): 6.049%
- % inhibition Apol 90' (DRC-1; concentration 5; 90'): 0.1368%
- % inhibition apPOL 180' (DRC-1; concentration 5; 180'): -5.456%
- % inhibition Apo pol 10' (DRC-1; concentration 10; 10'): 12.8328%
- % inhibition Apol 90' (DRC-1; concentration 10; 90'): 2.997%
- % inhibition apPOL 180' (DRC-1; concentration 10; 180'): -3.315%
- % inhibition Apo pol 10' (DRC-1; concentration 20; 10'): 32.0591%
- % inhibition Apol 90' (DRC-1; concentration 20; 90'): 18.8847%
- % inhibition apPOL 180' (DRC-1; concentration 20; 180'): 8.488%
- % inhibition Apo pol 10' (DRC-1; concentration 40; 10'): 80.8761%
- % inhibition Apol 90' (DRC-1; concentration 40; 90'): 73.3726%
- % inhibition apPOL 180' (DRC-1; concentration 40; 180'): 64.1358%
- % inhibition Apo pol 10' (DRC-1; concentration 80 (unit not given); 10'): 88.576%
- % inhibition Apol 90' (DRC-1; concentration 80; 90'): 90.0975%
- % inhibition apPOL 180' (DRC-1; concentration 80; 180'): 90.0477%
- % inhibition Apo pol 5' (DRC-2; 5'; concentration 10): 23%
- % inhibition ApPOL 90' (DRC-2; 90'; concentration 10): 23%
- % inhibition ApPOL 90' (DRC-2; 90'; concentration 40): 73%
- % inhibition apPOL 180' (DRC-2; 180'; concentration 40): 73%
- % inhibition Apo pol 5' (DRC-2; concentration 2.5; 5'): 2.23%
- % inhibition Apol 40' (DRC-2; concentration 2.5; 40'): 0.754%
- % inhibition ApPOL 90' (DRC-2; concentration 2.5; 90'): -0.536%
- % inhibition apPOL 180' (DRC-2; concentration 2.5; 180'): -0.06%
- % inhibition Apo pol 5' (DRC-2; concentration 5; 5'): 4.72%
- % inhibition Apol 40' (DRC-2; concentration 5; 40'): 6%
- % inhibition ApPOL 90' (DRC-2; concentration 5; 90'): 4.71%
- % inhibition apPOL 180' (DRC-2; concentration 5; 180'): 1.23%
- % inhibition Apo pol 5' (DRC-2; concentration 10; 5'): 23%
- % inhibition Apol 40' (DRC-2; concentration 10; 40'): 25%
- % inhibition ApPOL 90' (DRC-2; concentration 10; 90'): 23%
- % inhibition apPOL 180' (DRC-2; concentration 10; 180'): 16%
- % inhibition Apo pol 5' (DRC-2; concentration 20; 5'): 42%
- % inhibition Apol 40' (DRC-2; concentration 20; 40'): 49%
- % inhibition ApPOL 90' (DRC-2; concentration 20; 90'): 47%
- % inhibition apPOL 180' (DRC-2; concentration 20; 180'): 39%
- % inhibition Apo pol 5' (DRC-2; concentration 40; 5'): 54%
- % inhibition Apol 40' (DRC-2; concentration 40; 40'): 70%
- % inhibition ApPOL 90' (DRC-2; concentration 40; 90'): 73%
- % inhibition apPOL 180' (DRC-2; concentration 40; 180'): 73%
- % inhibition Apo pol 5' (DRC-2; concentration 80; 5'): 55%
- % inhibition Apol 40' (DRC-2; concentration 80; 40'): 74%
- % inhibition ApPOL 90' (DRC-2; concentration 80; 90'): 78%
- % inhibition apPOL 180' (DRC-2; concentration 80; 180'): 82%
- DNA Pol [1]: 36
- DNA Pol (primary screen value; head prints only 'DNA Pol'; 90 min, 10 µM): 36

From paper PMC9090415, “Discovery of small molecule inhibitors of Plasmodium falciparum apicoplast DNA polymerase” (Journal of Enzyme Inhibition and Medicinal Chemistry, 2022)
